Several values for one entry are separate records, joined by “and”; a condition that tells them apart may be missing. Identical values can stand only once. Activity calls are given as the source filed them. No rule for the calls is given here.

Sequence of Gag-Pol polyprotein (Human immunodeficiency virus type 2 subtype A (isolate ROD)) (P04584 whole entry, looked up): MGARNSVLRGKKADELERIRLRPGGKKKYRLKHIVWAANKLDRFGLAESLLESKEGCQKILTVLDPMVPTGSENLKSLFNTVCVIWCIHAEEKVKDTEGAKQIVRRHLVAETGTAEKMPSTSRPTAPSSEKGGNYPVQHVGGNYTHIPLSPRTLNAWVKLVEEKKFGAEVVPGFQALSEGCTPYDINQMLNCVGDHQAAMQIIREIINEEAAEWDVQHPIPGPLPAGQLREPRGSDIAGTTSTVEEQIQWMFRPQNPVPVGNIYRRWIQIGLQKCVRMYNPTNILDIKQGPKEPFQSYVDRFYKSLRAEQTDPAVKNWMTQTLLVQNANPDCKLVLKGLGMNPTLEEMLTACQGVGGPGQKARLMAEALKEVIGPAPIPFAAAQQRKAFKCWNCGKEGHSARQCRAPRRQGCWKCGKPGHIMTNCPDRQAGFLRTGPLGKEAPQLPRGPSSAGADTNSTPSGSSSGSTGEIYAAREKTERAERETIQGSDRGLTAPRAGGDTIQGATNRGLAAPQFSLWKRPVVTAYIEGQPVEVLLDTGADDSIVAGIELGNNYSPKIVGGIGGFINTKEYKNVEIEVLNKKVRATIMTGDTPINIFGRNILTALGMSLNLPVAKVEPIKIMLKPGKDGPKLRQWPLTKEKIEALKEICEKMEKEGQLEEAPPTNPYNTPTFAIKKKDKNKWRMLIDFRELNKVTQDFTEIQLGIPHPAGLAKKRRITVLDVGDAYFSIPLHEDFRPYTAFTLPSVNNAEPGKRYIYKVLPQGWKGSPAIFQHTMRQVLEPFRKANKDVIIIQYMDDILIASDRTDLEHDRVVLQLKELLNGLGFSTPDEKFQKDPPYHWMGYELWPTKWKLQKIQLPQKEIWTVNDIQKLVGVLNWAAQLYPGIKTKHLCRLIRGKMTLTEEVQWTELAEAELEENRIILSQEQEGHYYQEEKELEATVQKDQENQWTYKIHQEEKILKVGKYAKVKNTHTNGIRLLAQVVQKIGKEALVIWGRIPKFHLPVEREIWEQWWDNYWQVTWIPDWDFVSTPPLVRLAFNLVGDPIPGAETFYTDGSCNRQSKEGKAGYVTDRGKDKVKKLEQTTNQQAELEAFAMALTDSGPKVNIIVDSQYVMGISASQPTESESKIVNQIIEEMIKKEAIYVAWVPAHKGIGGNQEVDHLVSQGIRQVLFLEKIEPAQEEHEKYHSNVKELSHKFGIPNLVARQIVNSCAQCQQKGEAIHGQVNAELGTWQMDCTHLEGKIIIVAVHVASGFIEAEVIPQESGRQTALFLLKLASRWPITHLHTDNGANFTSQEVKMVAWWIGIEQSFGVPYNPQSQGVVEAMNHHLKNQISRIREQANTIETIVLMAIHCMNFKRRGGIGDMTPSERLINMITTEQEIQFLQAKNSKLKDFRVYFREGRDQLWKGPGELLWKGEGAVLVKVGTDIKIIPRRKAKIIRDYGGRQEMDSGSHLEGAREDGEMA

This assay has as its target Gag-Pol polyprotein (Human immunodeficiency virus type 2 subtype A (isolate ROD)) (UniProt P04584). In words: Reverse transcriptase ribonuclease H inhibitors, biochemical concentration-response (AID 367). The following applies: HIV-2 RNase H, FRET RNA/DNA substrate cleavage.
Turning to `Cc1ccc(S(=O)(=O)N=C2C=C(Cl)C(=O)C(Br)=C2)cc1`, the IC50 was 1.8 µM.

Regarding `COc1cc(-c2[o+]c3cc(O)cc(O)c3cc2O)cc(O)c1O`, the IC50 was 4.1 µM and 3.1 µM.

As for `C=C1C(=O)O[C@@H]2/C=C(\C)CC/C=C(\C(=O)O)CC/C=C(\C)CC[C@H]12`, the concentration for half-maximal inhibition (IC50) was 5.5 µM.

Take `CC(=O)O[C@H](C)[C@@H]1C2=C(C(=O)C[C@]1(C)O)C(=O)c1c(ccc(-c3ccc4c(c3O)C(=O)C3=C(C4=O)[C@@H]([C@@H](C)OC(C)=O)[C@@](C)(O)CC3=O)c1O)C2=O`: the IC50 result is “inactive”.

For `COc1ccc(NC(=O)c2c(N)sc(-c3ccccc3)c2C)cc1`, the 50% inhibitory concentration (IC50) was 9 µM.

For `Oc1cc(O)c2c(c1)OC(c1ccc(O)c(O)c1)C(OC1(c3cc(O)c(O)c(O)c3)Oc3cc(O)cc(O)c3C(O)C1O)C2` (configuration not stated), the IC50 is 1.6 µM.

As for `CC1=NN(c2ccc(S(N)(=O)=O)cc2)C(=O)/C1=C/c1ccc(-c2ccc(Cl)cc2Cl)o1`, the IC50 was 3.6 µM.

On to `Cc1cc(O)c2c(c1O)C(=O)C13C(=C2O)C(=O)C2C(O)C1C1C(O)C3C(=O)C3=C(O)c4c(O)cc(C)c(O)c4C(=O)C321` (configuration not stated), for which the IC50 is 8.2 µM.

As for `O=C1c2ccccc2C(=O)c2c(O)c(O)cc(O)c21`, the IC50 was 5 µM.

Regarding `C=C/C(C)=C/C[C@]1(C)[C@H](C)CC[C@@]23C(=C[C@H](OC(=O)c4ccc(O)c(OC)c4)C[C@@H]12)[C@@H](OC(C)=O)O[C@H]3OC(C)=O`, the IC50 result is “inactive”.

Regarding `CCC(=O)Nc1sc2c(c1C(=O)Nc1ccc(OC)cc1)CCCCC2`, the IC50 result is “inactive”.

Turning to `Cc1ccc(S(=O)(=O)N=C2C=CC(=O)C=C2)c(C)c1`, the IC50 is 4.3 µM.

As to `Cc1nn(CC(=O)Nc2sc(C)c(C)c2C(N)=O)c(C)c1[N+](=O)[O-]`, the concentration for half-maximal inhibition (IC50) is 4.3 µM.

Consider `Cc1ccc(C)n1-c1ccc(O)c(C(=O)O)c1`, for which the IC50 is 1.6 µM.

In the case of `O=c1c(O)cccc2cc(O)c(O)c(O)c12`, the IC50 is 1.3 µM.

Regarding `O=C(Nc1ccc(N2CCN(C(=O)c3ccccc3)CC2)cc1)c1ccc(-c2ccccc2)cc1`, the half-maximal inhibitory concentration (IC50) was 2.6 µM.

As for `Oc1ccc2ccccc2c1C=NCc1c(O)ccc2ccccc12`, the IC50 result is “inactive”.

In the case of `Oc1c(Br)cc(/C=N/Nc2nnc3c(n2)[nH]c2ccccc23)c(Br)c1O`, the IC50 was 2.3 µM.

Turning to `O=C(CSc1nc2ccccc2s1)c1sc2sc3ccccc3[n+]2c1[O-]`, the concentration for half-maximal inhibition (IC50) is 1.9 µM.

For the compound `Nc1cc(S(N)(=O)=O)ccc1SSc1ccc(S(N)(=O)=O)cc1N`, the IC50 was 2.5 µM.

For the compound `Cc1cc(O)c2c(c1O)C(=O)c1cccc(O)c1C2=O`, the IC50 is > 100 µM (inactive).

Consider `O=C1/C(=C\c2ccc(O)c(O)c2)SC(=S)N1c1cccc(Cl)c1`, for which the 50% inhibitory concentration (IC50) is 6.6 µM.

In the case of `Ic1ccc2c(c1)N(c1ccccc1)c1cc(N=c3ccc4nc5ccc(I)cc5n(-c5ccccc5)c-4c3)ccc1N2`, the IC50 is 2 µM.

With `CCc1c(O)c2c(c(O)c1C(C)=O)C(=O)c1c(cc(O)c(C(=O)O)c1C(=O)O)C2=O`, the half-inhibitory concentration (IC50) was 3.5 µM.

For the compound `COc1ccc2c(c1)N(C(=O)CN1C(=O)c3ccccc3C1=O)C(C)(C)c1ssc(=S)c1-2`, the IC50 is 3.7 µM.

With `O=c1c(O)c(-c2cc(O)c(O)c(O)c2)oc2cc(O)cc(O)c12`, the IC50 was 3 µM.

With `O=C1c2ccc(O)cc2C(=O)c2c1ccc(O)c2O`, the half-inhibitory concentration (IC50) is 2 µM.

Consider `Cc1cc(=O)c2c(O)c3c(O)cc(O)c4c5c(O)cc(O)c6c(O)c7c(=O)cc(C)c8c1c2c(c34)c(c65)c78`, for which the IC50 entry was “inactive”.

For the compound `CCOc1ccc(NC(=O)c2c(NC(=O)c3ccccc3)sc3c2CCCCC3)cc1`, the IC50 result is “inactive”.

As to `Cc1sc(NC(=O)C2CCCO2)c(C(N)=O)c1C` (configuration not stated), the half-inhibitory concentration (IC50) is 4.3 µM.

Regarding `CCOc1ccc(N2C(=O)/C(=C/c3ccc(I)o3)C(=O)NC2=S)cc1`, the IC50 was 2 µM.

For the compound `Cc1sc(NC(=O)Cc2ccccc2)c(C(N)=O)c1C`, the half-maximal inhibitory concentration (IC50) is 9 µM.

With `O=C1NC(=S)N(c2ccccc2F)C(=O)C1=Cc1ccco1`, the IC50 is 2.6 µM.

`Cc1sc(NC(=O)c2cccc([N+](=O)[O-])c2)c(C(N)=O)c1C`: the half-inhibitory concentration (IC50) was 1.8 µM.

As for `O=C(Oc1ccccc1)Oc1c(Cl)cc2oc(=O)sc2c1Cl`, the half-maximal inhibitory concentration (IC50) was 6.3 µM.

Turning to `Cc1cc(Cl)ccc1OCC(=O)Nc1sc(C)c(C)c1C(N)=O`, the IC50 result was “inactive”.

For `C[C@@H]1Oc2c3c(c4c(-c5ccccc5)cc(=O)oc4c2C(=O)[C@H]1C)OC(C)(C)C=C3`, the IC50 is 9.8 µM.

As to `O=C1C=CC(=O)C(c2cc(Cl)ccc2Cl)=C1`, the IC50 was 0.1 µM.

For the compound `COc1ccc(-c2nc3sc(-c4ccc(OC)cc4)nc3s2)cc1`, the IC50 is 2.9 µM.

Consider `C=CC1=C(C)C2=NC1=CC1=NC(=CC3=C(C)C4=C(O)C(C(=O)OC)C(=C5NC(=C2)C(C)C5CCC(=O)OC/C=C(\C)CCCC(C)CCCC(C)CCCC(C)C)C4=N3)C(CC)=C1C` (configuration not stated), for which the IC50 is > 100 µM (inactive).

`COc1ccc(C2COc3cc(O)c(O)cc3C2)cc1` (configuration not stated): the IC50 is 0.5 µM.

For the compound `O=C1NC(=S)S/C1=C/c1cccc(OCc2ccc(Cl)c(Cl)c2)c1`, the IC50 was 7.3 µM.

As to `Cc1c(O)c(Br)c(C)c(O)c1Br` (tested in a mixture with another compound), the concentration for half-maximal inhibition (IC50) is 0.7 µM.

As for `O=C1c2ccccc2C(=O)c2c(NC3CCCCC3)ccc(Nc3ccc(S(=O)(=O)O)cc3)c21`, the 50% inhibitory concentration (IC50) is 4.8 µM.

As to `NCC[Se][Se]CCN`, the IC50 is 2 µM.

On to `COc1cc(C)cc2c(-c3c(O)cc(O)c4c3C[C@@H](C)N[C@@H]4C)cc(-c3cc(-c4c(O)cc(O)c5c4C[C@@H](C)N[C@@H]5C)c4cc(C)cc(OC)c4c3O)c(O)c12`, for which the half-inhibitory concentration (IC50) is 2.1 µM.

Turning to `O=C1C(Cl)=C/C(=N\S(=O)(=O)c2ccc(Cl)cc2)C(Cl)=C1Cl`, the IC50 was 1 µM.

Turning to `S=C(Nc1ccc2c(c1)Cc1ccccc1-2)Nc1ccc2c(c1)Cc1ccccc1-2`, the IC50 result is “inactive”.

Turning to `CC(C)=CCC[C@]1(C)[C@@H](CC=C(C)C)C[C@@]2(CC=C(C)C)C(=O)/C(=C(\O)c3ccc(O)c(O)c3)C(=O)[C@]1(CC=C(C)C)C2=O`, the IC50 is 4.8 µM.

`O=C(O)c1cc(-c2ccc(/C=C3/Sc4ccccc4C3=O)o2)ccc1O`: the IC50 is 3.3 µM.

Take `O=C(Cc1ccccc1Cl)c1ccc(O)c(O)c1O`: the IC50 is 2 µM.

Consider `O=C1NC(=O)/C(=C/c2ccc(-c3ccc(O)c(C(=O)O)c3)o2)S1`, for which the IC50 was 1 µM.

Turning to `O=C1C(Cl)=C(Nc2ccc(S(=O)(=O)Nc3ccccn3)cc2)C(=O)c2ccccc21`, the half-inhibitory concentration (IC50) was 3.4 µM.

`Cc1ccc(-c2cc(C(=O)Nc3sc(C(=O)OC(C)C)c(C)c3C(N)=O)c3ccccc3n2)s1`: the half-inhibitory concentration (IC50) was 1.1 µM.

For the compound `O=c1[nH]c2[nH]c(=S)[nH]c(=S)c2[nH]1`, the half-inhibitory concentration (IC50) is 4 µM.

Turning to `C[N+](C)=c1ccc2nc3c(cc(Nc4ccccc4)c4ccccc43)oc-2c1`, the IC50 entry was “inactive”.

For `O=c1[nH]c(=S)n(-c2ccccc2F)c(O)c1C=C1C=CC=N1`, the half-maximal inhibitory concentration (IC50) is 2.3 µM.

As for `O=C1C(Cl)=C(NC(=O)c2ccccc2)C(=O)C(Cl)=C1NC(=O)c1ccccc1`, the IC50 was 1.1 µM.

In the case of `COc1cccc2cc(C(N)=O)c(=O)oc12`, the IC50 was 4.6 µM.

On to `CC(C)=CCC(O)C1=CC(=O)c2c(O)ccc(O)c2C1=O` (configuration not stated), for which the IC50 entry was “inactive”.

As to `COc1ccccc1NC(=O)c1c(NC(=O)Cc2ccccc2)sc2c1CCCCC2`, the half-inhibitory concentration (IC50) was 8.5 µM.

Regarding `O=C(O)c1c(Br)c(Br)c(Br)c(Br)c1C1c2ccc(O)cc2Oc2cc(O)ccc21`, the IC50 was 8 µM.

In the case of `CC(C)=CCC/C(C)=C/Cc1cc(/C=C/c2cc(O)c(C/C=C(\C)CCC=C(C)C)c(O)c2)cc(O)c1O`, the half-maximal inhibitory concentration (IC50) was 8.2 µM.

Consider `Oc1cc(O)c2cc(O)c(-c3ccc(O)c(O)c3)[o+]c2c1`, for which the IC50 was 0.8 µM.

Turning to `NC(=O)c1c(NC(=O)COc2ccccc2)sc2c1CCCCC2`, the half-maximal inhibitory concentration (IC50) is 8 µM.

`Cc1sc(NC(=O)c2ccco2)c(C(N)=O)c1C`: the concentration for half-maximal inhibition (IC50) is 5 µM.

`Cc1c(Cl)ccc2c1NC(C(=O)O)C1CC=CC21` (configuration not stated): the IC50 entry was “inactive”.

In the case of `CCOC(=O)Oc1c(OC)cc(C(=O)O[C@@H]2C[C@@H]3CN4CCc5c([nH]c6cc(OC)ccc56)[C@H]4C[C@@H]3[C@H](C(=O)OC)[C@H]2OC)cc1OC`, the IC50 was > 100 µM (inactive).

Turning to `O=C1C=CC(=NS(=O)(=O)c2ccc(Cl)c([N+](=O)[O-])c2)C=C1`, the IC50 is 4.1 µM.

Regarding `Cc1ccc(-c2n[nH]c(=S)n2/N=C/c2ccc(O)c(O)c2O)cc1`, the IC50 was 3.8 µM.

Regarding `COc1ccc(N2C(=O)/C(=C/c3ccc(I)o3)C(=O)NC2=S)cc1`, the concentration for half-maximal inhibition (IC50) was 1.3 µM.

As to `COc1cccc(-c2nc3cc(NC(=O)/C=C\c4ccccc4)ccc3o2)c1`, the IC50 was 9.2 µM.

On to `Cc1sc2nc(-c3ccc([N+](=O)[O-])cc3)[nH]c(=O)c2c1C`, for which the IC50 is 0.64 µM.

With `COc1cc([C@@H]2c3cc4c(cc3C[C@H]3COC(=O)[C@@H]32)OCO4)cc(OC)c1O`, the IC50 result was “inactive”.

On to `O=C1C(Cl)=C/C(=N\S(=O)(=O)c2ccccc2)C(Cl)=C1Cl`, for which the IC50 is 0.9 µM.

Turning to `CC(C)c1ccc(O)c(O)c(=O)c1` (tested in a mixture with another compound), the 50% inhibitory concentration (IC50) is 0.8 µM.

In the case of `O=c1oc2ccccc2c(O)c1/C=C1\C=Nc2ccccc21`, the IC50 was 5 µM.

For `CC(C)=CCc1ccc(O)c(=O)cc1C(C)C`, the IC50 was > 100 µM (inactive).

`CN(C)CN1CSC(=S)N(CN(C)C)C1`: the IC50 was 2.8 µM.

In the case of `O=C1NC(=S)N(c2cccc(Cl)c2)C(=O)/C1=C\C=C\c1ccco1`, the IC50 was 7 µM.

As to `NC(=O)c1c(NC(=O)CCc2ccccc2)sc2c1CCCCCC2`, the IC50 was 1.7 µM.

As for `Cc1ccc(-n2c(/C=C/c3ccc(O)c(O)c3)nc3ccccc3c2=O)cc1`, the concentration for half-maximal inhibition (IC50) is 3.8 µM.

Take `CCOc1cccc(N2C(=O)/C(=C/c3cn(CC(=O)OC)c4ccccc34)C(=O)NC2=S)c1`: the IC50 is 2.8 µM.

As for `O=C(N/N=C/c1ccccc1Cl)c1cc(O)c(O)c(O)c1`, the IC50 is 0.8 µM.

On to `CC(C)c1ccc(O)c(O)c(=O)c1`, for which the IC50 was 1 µM.

Consider `O=[N+]([O-])c1cc(Cc2cc([N+](=O)[O-])c3cccnc3c2O)c(O)c2ncccc12`, for which the IC50 was 2.8 µM.

As for `C[C@]12Cc3cnc(-c4ccccc4)nc3C[C@@H]1CC[C@@H]1[C@@H]2CC[C@@]2(C)[C@H]1CC[C@]2(C)O`, the IC50 result is “inactive”.

These data come from PubChem BioAssay AID367 (MTDP, 2006).
